# Measured values reported in patent publication US8614242B2, “1-(heterocyclic carbonyl)-2-substituted pyrrolidines” (Bayer Intellectual Property GmbH, priority 2010, dated 2013).
# Columns and labels:
# [1] = logP by HPLC on reversed-phase column (EEC Directive 79/831 Annex V.A8); assay type: physicochemical; details: HPLC on reversed-phase column (C 18), 40° C., 0.1% aqueous formic acid and acetonitrile, linear gradient 10% to 90% acetonitrile
# Procedure: In table 1, the logP values were determined in accordance with EEC Directive 79/831 Annex V.A8 by HPLC (High Performance Liquid Chromatography) on a reversed-phase column (C 18), using the method described below: Temperature: 40° C.; Mobile phases: 0.1% aqueous formic acid and acetonitrile; linear gradient from 10% acetonitrile to 90% acetonitrile. Calibration was carried out using unbranched alkan-2-ones (comprising 3 to 16 carbon atoms) with known logP values (determination of the logP values by the retention times using linear interpolation between two successive alkanones). lambda-max-values were determined using UV-spectra from 200 nm to 400 nm and the peak values of the chromatographic signals.
# Sphaerotheca fuliginea = experiment: In vivo preventive test on Sphaerotheca fuliginea (cucumber); details: 500 ppm of active ingredient, evaluated 7 days after inoculation
# Alternaria solani = experiment: In vivo preventive test on Alternaria solani (tomato); details: 500 ppm of active ingredient, evaluated 7 days after inoculation
# Procedure: The plants remain for one day in an incubation cabinet at approximately 22° C. and a relative atmospheric humidity of 100%. Then the plants are placed in an incubation cabinet at approximately 20° C. and a relative atmospheric humidity of 96%.
# Pyrenophora teres = experiment: In vivo preventive test on Pyrenophora teres (barley); details: 500 ppm of active ingredient, evaluated 7-9 days after inoculation
# Procedure: The plants remain for 48 hours in an incubation cabinet at 22° C. and a relative atmospheric humidity of 100%.
SMILES,logP [1],Efficacy (Sphaerotheca fuliginea),Efficacy (Alternaria solani),Efficacy (Pyrenophora teres)
CC(c1ccccc1Cl)C1CCCN1C(=O)c1c(C(F)F)nn(C)c1F (mixture of isomers) [Example 62],3.29,,,
CC(c1ccccc1Cl)C1CCCN1C(=O)c1c(C(F)F)nn(C)c1Cl (mixture of isomers) [Example 63],3.46,,,
CC(c1ccc(Cl)cc1Cl)C1CCCN1C(=O)c1c(C(F)F)nn(C)c1F (mixture of isomers) [Example 71],3.87,,,
CC(c1ccc(Cl)cc1Cl)C1CCCN1C(=O)c1c(C(F)F)nn(C)c1Cl (mixture of isomers) [Example 72],4.06,,,
CC(c1cc(Cl)ccc1Cl)C1CCCN1C(=O)c1c(C(F)F)nn(C)c1F (mixture of isomers) [Example 73],3.76,,,
CC(c1cc(Cl)ccc1Cl)C1CCCN1C(=O)c1c(C(F)F)nn(C)c1Cl (mixture of isomers) [Example 74],3.96,,,
CC(c1c(Cl)cccc1Cl)C1CCCN1C(=O)c1c(C(F)F)nn(C)c1F (mixture of isomers) [Example 78],3.52,,,
CC(c1c(Cl)cccc1Cl)C1CCCN1C(=O)c1c(C(F)F)nn(C)c1Cl (mixture of isomers) [Example 79],3.81,,,
Cn1nc(C(F)F)c(C(=S)N2CCCC2Cc2ccccc2Cl)c1F (racemic) [Example 61],3.83,95%,100%,100%
Cn1nc(C(F)F)c(C(=O)N2CCCC2Cc2ccc(C(C)(C)C)cc2)c1F (racemic) [Example 68],4.24,,94%,100%
Cn1nc(C(F)F)c(C(=O)N2CCCC2Cc2cccc(Cl)c2Cl)c1F (racemic) [Example 69],3.64,88%,100%,100%
Cn1nc(C(F)F)c(C(=S)N2CCCC2Cc2cccc(Cl)c2Cl)c1F (racemic) [Example 70],4.46,,95%,100%
Cn1nc(C(F)F)c(C(=O)N2CCCC2Cc2c(Cl)cccc2Cl)c1Cl (racemic) [Example 75],3.50,,90%,100%
Cn1nc(C(F)F)c(C(=S)N2CCCC2Cc2c(Cl)cccc2Cl)c1F (racemic) [Example 77],4.06,95%,100%,100%
Cn1nc(C(F)F)c(C(=O)N2CCCC2Cc2ccc(Br)cc2)c1F (racemic) [Example 80],3.39,89%,100%,100%
Cn1nc(C(F)F)c(C(=O)N2CCCC2Cc2cccc3ccccc23)c1F (racemic) [Example 83],3.52,,100%,100%
Cn1nc(C(F)F)c(C(=O)N2CCCC2CCc2ccccc2)c1F (racemic) [Example 84],3.02,,90%,100%
Cn1nc(C(F)F)c(C(=O)N2CCCC2CS(=O)(=O)c2ccccc2)c1F (racemic) [Example 87],2.13,,,
Cn1nc(C(F)F)c(C(=O)N2CCCC2CS(=O)(=O)c2ccccc2)c1Cl (racemic) [Example 88],2.20,,,

SMILES,logP [1],Efficacy (Sphaerotheca fuliginea),Efficacy (Alternaria solani),Efficacy (Pyrenophora teres)
Cc1ccccc1C1CCCN1C(=O)c1c(C(F)F)nn(C)c1Cl (centres unmarked) [Example 1],2.90,,80%,80%
Cc1ccccc1C1CCCN1C(=O)c1c(C(F)F)nn(C)c1F (centres unmarked) [Example 2],2.75,95%,90%,100%
COc1ccccc1C1CCCN1C(=O)c1c(C(F)F)nn(C)c1F (centres unmarked) [Example 3],2.59,,80%,
COc1ccc(C2CCCN2C(=O)c2c(C(F)F)nn(C)c2F)cc1 (centres unmarked) [Example 4],2.42,,80%,
Cn1nc(C(F)F)c(C(=O)N2CCCC2c2ccccc2Cl)c1Cl (centres unmarked) [Example 5],3.04,,80%,80%
Cn1nc(C(F)F)c(C(=O)N2CCCC2c2ccccc2Cl)c1F (centres unmarked) [Example 6],2.90,90%,100%,100%
Cn1nc(C(F)F)c(C(=O)N2CCCC2c2ccc(Cl)cc2)c1Cl (centres unmarked) [Example 7],3.04,,95%,70%
Cn1nc(C(F)F)c(C(=O)N2CCCC2c2ccc(Cl)cc2)c1F (centres unmarked) [Example 8],2.90,,100%,100%
Cn1nc(C(F)F)c(C(=O)N2CCCC2c2cc(F)cc(F)c2)c1Cl (centres unmarked) [Example 9],2.82,,,90%
Cn1nc(C(F)F)c(C(=O)N2CCCC2c2cc(F)cc(F)c2)c1F (centres unmarked) [Example 10],2.70,85%,95%,100%
Cn1nc(C(F)F)c(C(=O)N2CCCC2c2ccc3c(c2)OCO3)c1F (centres unmarked) [Example 11],2.35,,,70%
Cn1nc(C(F)F)c(C(=O)N2CCCC2c2ccc(C(C)(C)C)cc2)c1Cl (centres unmarked) [Example 12],3.90,,90%,95%
Cn1nc(C(F)F)c(C(=O)N2CCCC2c2ccc(C(C)(C)C)cc2)c1F (centres unmarked) [Example 13],3.74,93%,100%,100%
Cn1nc(C(F)F)c(C(=O)N2CCCC2c2ccccc2C(F)(F)F)c1Cl (centres unmarked) [Example 14],3.19,,95%,90%
Cn1nc(C(F)F)c(C(=O)N2CCCC2c2ccccc2C(F)(F)F)c1F (centres unmarked) [Example 15],3.09,,95%,100%
Cn1nc(C(F)F)c(C(=S)N2CCCC2c2cccc(C(F)(F)F)c2)c1Cl (centres unmarked) [Example 19],3.79,,,100%
Cn1nc(C(F)F)c(C(=O)N2CCCC2c2ccc(C(F)(F)F)cc2)c1Cl (centres unmarked) [Example 20],3.25,,70%,70%
Cn1nc(C(F)F)c(C(=O)N2CCCC2c2ccc(Cl)cc2Cl)c1Cl (centres unmarked) [Example 23],3.57,,95%,100%
Cn1nc(C(F)F)c(C(=O)N2CCCC2c2ccc(Cl)c(Cl)c2)c1Cl (centres unmarked) [Example 25],3.37,,95%,95%

SMILES,logP [1],Efficacy (Sphaerotheca fuliginea),Efficacy (Alternaria solani),Efficacy (Pyrenophora teres)
Cn1nc(C(F)F)c(C(=O)N2CCCC2c2ccc(-c3ccccc3)cc2)c1F (centres unmarked) [Example 29],3.50,,95%,100%
Cn1nc(C(F)F)c(C(=O)N2CCCC2c2ccc(-c3ccccc3)cc2)c1Cl (centres unmarked) [Example 30],3.65,,,100%
Cn1nc(C(F)F)c(C(=O)N2CCCC2c2ccccc2Br)c1Cl (centres unmarked) [Example 31],3.09,,90%,95%
Cn1nc(C(F)F)c(C(=O)N2CCCC2c2cccc(Br)c2)c1Cl (centres unmarked) [Example 33],3.06,,95%,100%
Cn1nc(C(F)F)c(C(=O)N2CCCC2c2cc(C(F)(F)F)cc(C(F)(F)F)c2)c1Cl (centres unmarked) [Example 40],3.79,,95%,95%
Cn1nc(C(F)F)c(C(=O)N2CCCC2c2cccc3ccccc23)c1F (centres unmarked) [Example 41],3.08,75%,,90%
Cn1nc(C(F)F)c(C(=O)N2CCCC2c2ccco2)c1F (centres unmarked) [Example 42],2.13,,,
Cn1nc(C(F)F)c(C(=O)N2CCCC2c2ccccn2)c1F (centres unmarked) [Example 43],0.92,,,
Cn1nc(C(F)F)c(C(=O)N2CCCC2c2cccnc2)c1F (centres unmarked) [Example 44],0.48,,,
Cn1nc(C(F)F)c(C(=O)N2CCCC2c2cccs2)c1F (centres unmarked) [Example 45],2.39,,90%,95%
Cn1nc(C(F)F)c(C(=O)N2CCCC2c2cnc3ccccc3c2)c1F (centres unmarked) [Example 46],1.50,,,
Cn1nc(C(F)F)c(C(=O)N2CCCC2c2ccc3ncccc3c2)c1F (centres unmarked) [Example 47],1.14,,,
Cn1nc(C(F)F)c(C(=O)N2CCCC2c2cc3ccccc3s2)c1F (centres unmarked) [Example 48],3.11,93%,,100%
Cn1nc(C(F)F)c(C(=O)N2CCCC2c2cc3ccccc3s2)c1Cl (centres unmarked) [Example 49],3.25,,,95%
Cn1nc(C(F)F)c(C(=O)N2CCCC2c2nc3ccccc3s2)c1Cl (centres unmarked) [Example 50],2.61,,,
Cn1nc(C(F)F)c(C(=O)N2CCCC2c2nc3ccccc3s2)c1F (centres unmarked) [Example 51],2.49,,,95%
Cn1nc(C(F)F)c(C(=O)N2CCC[C@H]2COc2c(Cl)cc(Cl)cc2Cl)c1Cl [Example 81],4.36,100%,,
Cn1nc(C(F)F)c(C(=O)N2CCC[C@H]2COc2ccc(Cl)cc2)c1F [Example 85],3.29,,,
Cn1nc(C(F)F)c(C(=O)N2CCC[C@H]2COc2ccc(Cl)cc2)c1Cl [Example 86],3.44,,,
